Experiments:
Assay type in all cases: cell-based, human
CTL clone 5 = assay: GM-CSF release by CTL clone 5 on peptide-pulsed EBV B cells; conditions: for CTL clone 5 GM-CSF release: 1510EBV cells incubated with peptide at 0.1 μg/ml for 90 min; for GM-CSF release by CTL clone 5, EXPT. 2 (586EBV): 586EBV cells; for GM-CSF release by CTL clone 5, EXPT. 2 (586EBV) / GM-CSF release by CTL clone 5, EXPT. 1 (1510EBV): peptide 0.1 μg/ml for 90 min, 5 × 10^4 CTL clone 5; for GM-CSF release by CTL clone 5, EXPT. 1 (1510EBV): 1510EBV cells
Description: (§1) DNA transfection and GM-CSF assay were done as previously described (Wang, R. F., P. F. Robbins, Y. Kawakami, X. Q. Kang, and S. A. Rosenberg, 1995, J. Exp. Med. 181:799–804). Briefly, […] of DNA carrying a different fragment and 50 ng of the HLA-A31 DNA were mixed with 2 μl of lipofectamine in 100 μl of serum-free DMEM for 15–45 min. The DNA/lipofectamine mixture was then added to the COS-7 (5×10^4) cells and incubated overnight. The following day, cells were washed twice with DMEM medium. TIL586, CTL clone 5 or CTL clone 10 were added at a concentration of 5×10^4 cells/well in AIM-V medium containing 120 IU/ml of IL-2. After 18–24 h incubation, 100 μl of supernatant was collected and GM-CSF was measured in a standard ELISA assay (R+D Systems, Minneapolis, Minn.). For peptides, 586EBV, 1510EBV and T2 cells were incubated with peptides at 37° C. for 90 min, and then washed three times with AIM-V medium containing 120 IU/ml of IL-2. T cells were added and incubated for additional 18–24 h, 100 μl of supernatant was collected for GM-CSF assay. In some experiments, IFN-γ release assays were done using a standard ELISA kit (Endogen, Woburn, Mass.).
These peptides were pulsed onto HLA-A31-positive 1510EBV B cells and tested for their ability to stimulate cytokine release by CTL clone 5. […] CTL clone 10 recognized the same peptide as CTL clone 5 (data not shown). […] The reactivity of CTL clone 5 was undetectable when either the ESO9-54 or the ESO10-127 peptides were used at concentrations below 100 nM to sensitize EBV cells.

CTL clone 2 [1] = assay: Chromium release cytolysis of peptide-pulsed target cells by CTL clone 2; conditions: 4-h chromium release, E:T ratio of 20:1 (FIG. 7B)
Excerpt: FIGS. 7A–7C. An alternative open reading frame of the NY-ESO-1 gene and antigenic peptides recognized by CTL. FIG. 7A. Identification of antigenic peptides from the ORF2. Thirty peptides were synthesized based on all potential ORFs and screened. Representative data are shown here. Seven peptides derived from ORF2 (see FIG. 3A) were pulsed on HLA-A31 positive 1510EBV B cells and tested for T cell recognition based on GM-CSF release ([…], SEQ ID NO: 123; […], SEQ ID NO: 124; […], SEQ ID NO: 125; […], SEQ ID NO: 46; […], SEQ ID NO: 47; […], SEQ ID NO: 126; and […], SEQ ID NO: 127). 1510 EBV alone was used as a negative control. FIG. 7B. 1510EBV B cells were labeled with chromium for 2 h. The ESORF2-10-18 peptide was then pulsed on the chromium-labeled […] (solid square) and HLA-A31-negative 1102EBV (open circle) at different concentrations. 1510EBV pulsed with ESO10-53, which was recognized by CTL clone 5, was used for the specificity control (solid triangle). After peptide incubation and three washes, cytolysis of target cells by CTL-clone 2 was determined in a 4-h chromium release assay at an E:T ratio of 20:1. FIG. 7C. Several tumor lines and fresh breast tumors were tested for recognition by CTL clone 2 to determine whether the ORF2 is translated in different tumors. 1510EBV B cells pulsed with […] (SEQ ID NO: 25) (ESO10-53), […] (SEQ ID NO: 47) (ORF2-10-18), or alone were included to evaluate the reactivity and specificity of CTL clone 2 and 5. […]
Cytolytic assay was done as previously described (Kawakami, Y et al., 1994, Proc. Natl. Acad. Sci. USA 91:6458–62). […] The cells were washed again, counted, and then mixed with TIL586 or CTL clone 5 at the indicated ratio of effector: targets (E:T). Chromium release was measured after 4 h incubation. […] Percentage of specific lysis was determined from the equation (A−B)/(C−B)×100 where A is lysis of 586EBV B cells by TIL586 or clone 5 in the presence of a peptide, B is spontaneous release from 586EBV B cells in presence of the same peptide but in the absence of effector cells, and C is the maximum chromium release. […]

CTL clone 2 [2] = assay: T cell recognition (GM-CSF release) of peptide-pulsed EBV B cells by CTL clone 2; conditions: peptide pulsed onto 1510EBV or 586EBV B cells
Excerpt: FIGS. 7A–7C. An alternative open reading frame of the NY-ESO-1 gene and antigenic peptides recognized by CTL. FIG. 7A. Identification of antigenic peptides from the ORF2. Thirty peptides were synthesized based on all potential ORFs and screened. Representative data are shown here. Seven peptides derived from ORF2 (see FIG. 3A) were pulsed on HLA-A31 positive 1510EBV B cells and tested for T cell recognition based on GM-CSF release ([…], SEQ ID NO: 123; […], SEQ ID NO: 124; […], SEQ ID NO: 125; […], SEQ ID NO: 46; […], SEQ ID NO: 47; […], SEQ ID NO: 126; and […], SEQ ID NO: 127). 1510 EBV alone was used as a negative control. FIG. 7B. 1510EBV B cells were labeled with chromium for 2 h. The ESORF2-10-18 peptide was then pulsed on the chromium-labeled […] (solid square) and HLA-A31-negative 1102EBV (open circle) at different concentrations. 1510EBV pulsed with ESO10-53, which was recognized by CTL clone 5, was used for the specificity control (solid triangle). After peptide incubation and three washes, cytolysis of target cells by CTL-clone 2 was determined in a 4-h chromium release assay at an E:T ratio of 20:1. FIG. 7C. Several tumor lines and fresh breast tumors were tested for recognition by CTL clone 2 to determine whether the ORF2 is translated in different tumors. 1510EBV B cells pulsed with […] (SEQ ID NO: 25) (ESO10-53), […] (SEQ ID NO: 47) (ORF2-10-18), or alone were included to evaluate the reactivity and specificity of CTL clone 2 and 5. Expression of HLA-A31 on the tumor cells is indicated.
as §1, with “For peptides, 586EBV, 1510EBV and T2 cells were incubated with peptides at 37° C. for 90 min, and then washed three times with AIM-V medium containing 120 IU/ml of IL-2. T cells were added and incubated for additional 18–24 h, 100 μl of supernatant was collected for GM-CSF assay. In some experiments, IFN-γ release assays were done using a standard ELISA kit (Endogen, Woburn, Mass.).” left out
CTL clone 5 and TIL1244 were used for the specificity controls. […] To test the hypothesis that CTL may recognize a peptide from a gene product translated from an alternative open reading frame of the same gene, synthetic peptides were made with HLA-A31 Binding motif on the basis of amino acid sequence predicted from the second open reading frames (ORF2) (FIG. 3A). […]

Sequence | CTL clone 5 GM-CSF release (CTL clone 5) | GM-CSF release by CTL clone 5, EXPT. 2 (586EBV) (CTL clone 5) | GM-CSF release by CTL clone 5, EXPT. 1 (1510EBV) (CTL clone 5) | also measured
AASGLNGCCR (listed as Homo sapiens) [ESO10-68] | <50 (SEQ. ID NO: 21) pg/ml | – | – | –
PMEAELARR [ESO9-99] | <50 (SEQ. ID NO: 8) pg/ml | – | – | –
LAAQERRVPR (listed as Homo sapiens) [ESORF2-10-18] | – | – | – | Lysis of peptide-pulsed HLA-A31-negative 1102EBV by CTL clone 2 (CTL clone 2 [1]): failed to lyse; Lysis of peptide-pulsed 1510EBV by CTL clone 2 (CTL clone 2 [1]; peptide titration): capable of lysing; Recognition by CTL clone 2, in words (CTL clone 2 [2]): recognized
LSGPGGGAPR (listed as Homo sapiens) | – | <50 (SEQ. ID NO: 43) | <50 | –
AIGPGGGAPR (listed as Homo sapiens) | – | 550 (SEQ. ID NO: 35) | 428 | –
ARASGPGGGAPR (listed as Homo sapiens) | – | 738 (SEQ. ID NO: 29) | 840 | –
VSGPGGGAPR (listed as Homo sapiens) | – | 666 (SEQ. ID NO: 42) | 825 | –
RGPRGAGAAR (listed as Homo sapiens) [ESO10-44] | <50 (SEQ. ID NO: 23) pg/ml | – | – | –
FLAQPPSGQR (listed as Homo sapiens) [ESO10-170] | <50 (SEQ. ID NO: 18) pg/ml | – | – | –
RASGPGGGAPR (listed as Homo sapiens) | – | 708 (SEQ. ID NO: 30) | 851 | –
AVGPGGGAPR (listed as Homo sapiens) | – | 512 (SEQ. ID NO: 37) | 556 | –
AARASGPGGGAPR (listed as Homo sapiens) | – | 738 (SEQ. ID NO: 28) | 844 | –
GATGGRGPR (listed as Homo sapiens) [ESO9-38] | <50 (SEQ. ID NO: 9) pg/ml | – | – | –
GPRGAGAAR (listed as Homo sapiens) [ESO9-45] | <50 (SEQ. ID NO: 10) pg/ml | – | – | –
RCGARGPESR (listed as Homo sapiens) [ESO10-77] | <50 (SEQ. ID NO: 20) pg/ml | – | – | –
ASGPGGGAPH (listed as Homo sapiens) | – | <50 (SEQ. ID NO: 40) | <50 | –
ASGPGGGAPK (listed as Homo sapiens) | – | <50 (SEQ. ID NO: 39) | <50 | –
SGPGGGAPRG (listed as Homo sapiens) | – | <50 (SEQ. ID NO: 33) | <50 | –
ALGPGGGAPR (listed as Homo sapiens) | – | 378 (SEQ. ID NO: 36) | 200 | –

Sequence | CTL clone 5 GM-CSF release (CTL clone 5) | GM-CSF release by CTL clone 5, EXPT. 2 (586EBV) (CTL clone 5) | GM-CSF release by CTL clone 5, EXPT. 1 (1510EBV) (CTL clone 5) | also measured
AAGPGGGAPR (listed as Homo sapiens) | – | 676 (SEQ. ID NO: 34) | 688 | –
TSGPGGGAPR (listed as Homo sapiens) | – | 346 (SEQ. ID NO: 41) | 320 | –
AGAARASGPGGGAPR (listed as Homo sapiens) | – | 532 (SEQ. ID NO: 26) | 728 | –
TPMEAELARR (listed as Homo sapiens) [ESO10-98] | <50 (SEQ. ID NO: 19) pg/ml | – | – | –
ATPMEAELAR (listed as Homo sapiens) [ESO10-97] | <50 (SEQ. ID NO: 17) pg/ml | – | – | –
AQPPSGQRR (listed as Homo sapiens) [ESO9-90] | <50 (SEQ. ID NO: 6) pg/ml | – | – | –
TPMEAELAR (listed as Homo sapiens) [ESO9-98] | <50 (SEQ. ID NO: 7) pg/ml | – | – | –
GAARASGPGGGAPR (listed as Homo sapiens) | – | 678 (SEQ. ID NO: 27) | 659 | –
IRLTAADHR (listed as Homo sapiens) [ESO9-35] | <50 (SEQ. ID NO: 13) pg/ml | – | – | –
LAQPPSGQRR (listed as Homo sapiens) [ESO10-171] | <50 (SEQ. ID NO: 22) pg/ml | – | – | –
ATGPGGGAPR (listed as Homo sapiens) | – | 1158 (SEQ. ID NO: 38) | 1630 | –
AAQERRVPR (listed as Homo sapiens) [ESORF2-9-19] | – | – | – | Recognition by CTL clone 2, in words (CTL clone 2 [2]): recognized
ASGPGGGAPRG (listed as Homo sapiens) | – | <50 (SEQ. ID NO: 32) | <50 | –
TIRLTAADHR (listed as Homo sapiens) [ESO10-34] | <50 (SEQ. ID NO: 16) pg/ml | – | – | –
RSGPGGGAPR (listed as Homo sapiens) | – | <50 (SEQ. ID NO: 44) | <50 | –
SGPGGGAPR (listed as Homo sapiens) [ESO9-54] | 304 (SEQ. ID NO: 14) pg/ml | <50 (SEQ. ID NO: 14) | <50 | Recognition by CTL clone 5 (cytokine release), in words (CTL clone 5; peptide pulsed onto HLA-A31-positive 1510EBV or 586EBV B cells): weakly recognized
GPGGGAPR (listed as Homo sapiens) | – | <50 (SEQ. ID NO: 31) | <50 | –
LAQPPSGQR (listed as Homo sapiens) [ESO9-89] | <50 (SEQ. ID NO: 11) pg/ml | – | – | –
LNGCCRCGAR (listed as Homo sapiens) [ESO10-72] | <50 (SEQ. ID NO: 24) pg/ml | – | – | –

Source: patent publication US7084239B1, “Cancer peptides of NY-ESO-1/CAG-3” (The United States of America as represented by the …, priority 1997, dated 2006)
